Laboratory results reported in patent US12685312B2, “Sulfonamide apyrase inhibitors” (Texas Crop Science, Inc., priority 2022, dated 2026).

Tested on: apyrase
Assay: Screen for apyrase inhibitors (Method 1, in vitro phosphate-release absorbance assay)
Assay type: biochemical
Settings: inhibitor conc at 1 mM stock, 1 hr room temperature, absorbance 630 nm; rounded average of two assay results
Procedure: Apyrase inhibitors useful as enhancers of pesticidal activity are assessed using an in vitro assay. The method of Windsor, Bio Techniques 33:1024-1030 (November 2002) was used as follows Screen for Apyrase Inhibitors- 96 well plates were used for the assay: (Greiner bio-one: REF-655901-96 well, PS, F-bottom, Clear, Non-binding) Buffers: • Reaction Buffer: 60 mM Hepes; 3 mM MgCl2, 3 mM CaCl2 and 3 mM ATP (pH 6.5) • Development Buffer A: 2% aqueous ammonium molybdate • Development Buffer B: 11% ascorbic acid in 37.5% TCA in water • Stop buffer C: 2% trisodium citrate in 2% acetic acid solution in water • Add 100 μl of reaction buffer to each well. • Add 10 μl of DMSO (control) or inhibitor/compound or compounds such as […] or orthovanadate to each well. […] A blank cell indicates either <10% observed inhibition or a large difference between repetitions. In certain examples, the lack of observed inhibition is due to a lack of solubility of the compound under assay conditions, rather than a lack of apyrase inhibitory activity.

Row | Compound | % Inhibition of Apyrase [%]
1 | O=C(c1ccc(S(=O)(=O)Nc2ccc(Cl)cc2)cc1)N1CCc2ccccc21 [I-208, N-(4-chlorophenyl)-4-(indoline-1-carbonyl)benzenesulfonamide] | 66
2 | CCOc1ccc(NS(=O)(=O)c2ccc(C(=O)Nc3cccc(C#N)c3)cc2)cc1 [I-211, N-(3-cyanophenyl)-4-(N-(4-ethoxyphenyl)sulfamoyl)benzamide] | 76
3 | O=C(Nc1cccc(NS(=O)(=O)c2ccc(Cl)cc2)c1)c1cc(F)ccc1F [I-212, N-(3-((4-chlorophenyl)sulfonamido)phenyl)-2,5-difluorobenzamide] | 69
4 | Cc1cccc(NC(=O)c2cccc(S(=O)(=O)N3CCc4ccccc43)c2)c1 [I-214, 3-(indolin-1-ylsulfonyl)-N-(m-tolyl)benzamide] | 71
5 | O=C(Nc1ccc(F)cc1)c1cccc(S(=O)(=O)Nc2ccc3c(c2)OCO3)c1 [I-216, 3-(N-(benzo[d][1,3]dioxol-5-yl)sulfamoyl)-N-(4-fluorophenyl)benzamide] | 71
6 | O=C1CCc2cc(S(=O)(=O)Nc3cccc(C(=O)Nc4cccc(C(F)(F)F)c4)c3)ccc2N1 [I-218, 3-((2-oxo-1,2,3,4-tetrahydroquinoline)-6-sulfonamido)-N-(3-(trifluoromethyl)phenyl)benzamide] | 62
7 | Cc1ccc(S(=O)(=O)Nc2cccc(NC(=O)c3ccc4c(c3)OCCO4)c2)cc1C [I-227, N-(3-((3,4-dimethylphenyl)sulfonamido)phenyl)-2,3-dihydrobenzo[b][1,4]dioxine-6-carboxamide] | 71
8 | COc1ccc(NC(=O)c2ccccc2NS(=O)(=O)c2cccc(C(F)(F)F)c2)cc1OC [I-228, N-(3,4-dimethoxyphenyl)-2-((3-(trifluoromethyl)phenyl)sulfonamido)benzamide] | 55
9 | O=C(Nc1cccc(S(=O)(=O)Nc2ccc(Br)cc2)c1)c1ccc2c(c1)OCO2 [I-232, N-(3-(N-(4-bromophenyl)sulfamoyl)phenyl)benzo[d][1,3] dioxole-5-carboxamide] | 65
10 | C#Cc1cccc(NC(=O)c2cccc(S(=O)(=O)Nc3ccc(Cl)cc3)c2)c1 [I-237, 3-(N-(4-chlorophenyl)sulfamoyl)-N-(3-ethynylphenyl)benzamide] | 76
11 | Cc1ccccc1NC(=O)c1cccc(S(=O)(=O)Nc2ccc3c(c2)OCO3)c1 [I-238, 3-(N-(benzo[d][1,3]dioxol-5-yl)sulfamoyl)-N-(o-tolyl)benzamide] | 74
12 | O=C(NC12CC3CC(CC(C3)C1)C2)c1cccc(S(=O)(=O)Nc2ccc(Br)cc2)c1 [I-240, N-(adamantan-1-yl)-3-(N-(4-bromophenyl)sulfamoyl)benzamide] | 71
13 | CC1Cc2ccccc2N1S(=O)(=O)c1cccc(C(=O)Nc2ccc(F)c([N+](=O)[O-])c2)c1 (stereo not shown) [I-242, N-(4-fluoro-3-nitrophenyl)-3-((2-methylindolin-1-yl)sulfonyl)benzamide] | 69
14 | Cc1ccc(NC(=O)c2cccc(S(=O)(=O)Nc3ccc4c(c3)OCO4)c2)cc1 [I-245, 3-(N-(benzo[d][1,3]dioxol-5-yl)sulfamoyl)-N-(p-tolyl)benzamide] | 67
15 | COc1ccc(NC(=O)c2cccc(S(=O)(=O)Nc3ccc(Cl)cc3)c2)cc1 [I-246, 3-(N-(4-chlorophenyl)sulfamoyl)-N-(4-methoxyphenyl)benzamide] | 66
16 | O=C(c1cccc(S(=O)(=O)Nc2ccc(Br)cc2)c1)N1CCN(c2cccc(Cl)c2)CC1 [I-247, N-(4-bromophenyl)-3-(4-(3-chlorophenyl)piperazine-1-carbonyl)benzenesulfonamide] | 65
17 | CSc1cccc(NC(=O)c2cccc(S(=O)(=O)Nc3ccc4c(c3)OCO4)c2)c1 [I-248, 3-(N-(benzo[d][1,3]dioxol-5-yl)sulfamoyl)-N-(3-(methylthio)phenyl)benzamide] | 64
18 | O=C(Nc1ccccc1F)c1cccc(S(=O)(=O)Nc2ccc3c(c2)OCO3)c1 [I-249, 3-(N-(benzo[d][1,3]dioxol-5-yl)sulfamoyl)-N-(2-fluorophenyl)benzamide] | 63
19 | COc1ccc([N+](=O)[O-])cc1NC(=O)c1cccc(S(=O)(=O)Nc2cc(C(F)(F)F)ccc2Cl)c1 [I-251, 3-(N-(2-chloro-5-(trifluoromethyl)phenyl)sulfamoyl)-N-(2-methoxy-5-nitrophenyl)benzamide] | 62
20 | Cc1ccc(F)c(NC(=O)c2cccc(S(=O)(=O)Nc3ccc4c(c3)OCO4)c2)c1 [I-252, 3-(N-(benzo[d][1,3]dioxol-5-yl)sulfamoyl)-N-(2-fluoro-5-methylphenyl)benzamide] | 62
21 | COc1cccc(NC(=O)c2cccc(S(=O)(=O)Nc3ccc4c(c3)OCO4)c2)c1 [I-253, 3-(N-(benzo[d][1,3]dioxol-5-yl)sulfamoyl)-N-(3-methoxyphenyl)benzamide] | 61
22 | Cc1nc2cc(NC(=O)c3cccc(S(=O)(=O)Nc4ccc(Br)cc4)c3)ccc2o1 [I-256, 3-(N-(4-bromophenyl)sulfamoyl)-N-(2-methylbenzo[d]oxazol-5-yl)benzamide] | 61

Results, then the molecule that gave them:

Row | % Inhibition of Apyrase [%] | Compound
23 | 74 | Cc1cccc(NS(=O)(=O)c2ccc(C(=O)Nc3cccc(C#N)c3)cc2)c1C [I-206, N-(3-cyanophenyl)-4-(N-(2,3-dimethylphenyl)sulfamoyl)benzamide]
24 | 74 | O=C(Nc1cccc(S(=O)(=O)Nc2ccc(Br)cc2)c1)c1ccsc1 [I-207, N-(3-(N-(4-bromophenyl)sulfamoyl)phenyl)thiophene-3-carboxamide]
25 | 73 | N#Cc1cc(C(=O)Nc2cccc(NS(=O)(=O)c3ccccc3)c2)ccc1Cl [I-210, 4-chloro-3-cyano-N-(3-(phenylsulfonamido)phenyl)benzamide]
26 | 58 | CN(c1ccccc1)S(=O)(=O)c1ccccc1C(=O)Nc1ccc(S(=O)(=O)N2CCCC2)cc1 [I-215, 2-(N-methyl-N-phenylsulfamoyl)-N-(4-(pyrrolidin-1-ylsulfonyl)phenyl)benzamide]
27 | 68 | O=C(Nc1ccc(F)c(F)c1)c1cccc(S(=O)(=O)Nc2ccc3c(c2)OCO3)c1 [I-220, 3-(N-(benzo[d][1,3]dioxol-5-yl)sulfamoyl)-N-(3,4-difluorophenyl)benzamide]
28 | 74 | O=C(Nc1cccc(F)c1)c1ccc(S(=O)(=O)Nc2ccc(Cl)cc2)cc1 [I-223, 4-(N-(4-chlorophenyl)sulfamoyl)-N-(3-fluorophenyl)benzamide]
29 | 67 | O=C(Nc1ccc(OC(F)F)cc1)c1ccccc1S(=O)(=O)Nc1cccc(C(F)(F)F)c1 [I-224, N-(4-(difluoromethoxy)phenyl)-2-(N-(3-(trifluoromethyl)phenyl)sulfamoyl)benzamide]
30 | 72 | Cc1ccc(NC(=O)c2ccc(S(=O)(=O)Nc3cccc(C(F)(F)F)c3)cc2)c(C)c1 [I-225, N-(2,4-dimethylphenyl)-4-(N-(3-(trifluoromethyl)phenyl)sulfamoyl)benzamide]
31 | 66 | Cc1ccc(NC(=O)c2cccc(S(=O)(=O)Nc3ccc4c(c3)OCO4)c2)cc1C [I-230, 3-(N-(benzo[d][1,3]dioxol-5-yl)sulfamoyl)-N-(3,4-dimethylphenyl)benzamide]
32 | 58 | Cc1ccc(NC(=O)c2ccccc2NS(=O)(=O)c2cccc(C(F)(F)F)c2)cc1 [I-231, N-(p-tolyl)-2-((3-(trifluoromethyl)phenyl)sulfonamido)benzamide]
33 | 51 | CN(c1ccccc1)S(=O)(=O)c1ccccc1C(=O)Nc1ccc(C#N)cc1 [I-235, N-(4-cyanophenyl)-2-(N-methyl-N-phenylsulfamoyl)benzamide]
34 | 71 | O=C(Nc1ccc(Cl)c([N+](=O)[O-])c1)c1cccc(S(=O)(=O)Nc2cc(C(F)(F)F)ccc2Cl)c1 [I-241, N-(4-chloro-3-nitrophenyl)-3-(N-(2-chloro-5-(trifluoromethyl)phenyl)sulfamoyl)benzamide]
35 | 69 | O=C(Nc1ccc(OC(F)F)cc1)c1cccc(S(=O)(=O)Nc2ccc3c(c2)OCO3)c1 [I-243, 3-(N-(benzo[d][1,3]dioxol-5-yl)sulfamoyl)-N-(4-(difluoromethoxy)phenyl)benzamide]
36 | 68 | O=C(NC1CCCc2ccccc21)c1cccc(S(=O)(=O)Nc2ccc(Br)cc2)c1 (stereo not shown) [I-244, 3-(N-(4-bromophenyl)sulfamoyl)-N-(1,2,3,4-tetrahydronaphthalen-1-yl)benzamide]
37 | 63 | O=C(Nc1ccc(Br)cc1)c1cccc(S(=O)(=O)Nc2cccc(C(F)(F)F)c2)c1 [I-250, N-(4-bromophenyl)-3-(N-(3-(trifluoromethyl)phenyl)sulfamoyl)benzamide]
38 | 61 | COc1ccc([N+](=O)[O-])cc1NC(=O)c1cccc(S(=O)(=O)Nc2ccc(Cl)cc2)c1 [I-254, 3-(N-(4-chlorophenyl)sulfamoyl)-N-(2-methoxy-5-nitrophenyl)benzamide]
39 | 61 | O=C(Nc1ccc(N2CCOCC2)cc1)c1cccc(S(=O)(=O)Nc2ccc(Br)cc2)c1 [I-255, 3-(N-(4-bromophenyl)sulfamoyl)-N-(4-morpholinophenyl)benzamide]
40 | 61 | COc1cc(NC(=O)c2cccc(S(=O)(=O)Nc3ccc4c(c3)OCO4)c2)cc(OC)c1 [I-257, 3-(N-(benzo[d][1,3]dioxol-5-yl)sulfamoyl)-N-(3,5-dimethoxyphenyl)benzamide]
